Measured values reported in the NIST ThermoML archive (doi:10.1016/j.jct.2014.07.023).
Numbers after ± are expanded uncertainties.

Assay: molar heat capacity at constant pressure; xn = mol fraction of the nth substance listed
Conditions: 100 kPa, Liquid, Small sample (50 mg) DSC

CCC(O)CO (configuration not stated) [1,2-butanediol] + CO
molar heat capacity at constant pressure [J/K/mol]
Conditions	293.15 K	298.15 K	303.15 K	308.15 K	313.15 K	318.15 K	323.15 K
x1 = 0.0476	87.09 ± 3.7	88.16 ± 3.7	89.28 ± 3.8	90.46 ± 3.8	91.68 ± 3.9	92.97 ± 3.9	94.33 ± 4
x1 = 0.2098	110.52 ± 4.7	111.89 ± 4.7	113.35 ± 4.8	114.81 ± 4.9	116.36 ± 5	117.95 ± 5	119.55 ± 5.1
x1 = 0.2964	123.04 ± 5.2	124.67 ± 5.3	126.29 ± 5.4	127.97 ± 5.4	129.69 ± 5.5	131.42 ± 5.6	133.19 ± 5.7
x1 = 0.3913	137.52 ± 5.9	139.33 ± 5.9	141.14 ± 6	143 ± 6.1	144.86 ± 6.1	146.72 ± 6.2	148.64 ± 6.3
x1 = 0.4706	148.79 ± 6.3	150.69 ± 6.4	152.65 ± 6.5	154.55 ± 6.5	156.51 ± 6.6	158.53 ± 6.7	160.49 ± 6.8
x1 = 0.6016	168.53 ± 7.2	170.74 ± 7.2	172.88 ± 7.4	175.02 ± 7.4	177.24 ± 7.5	179.38 ± 7.6	181.52 ± 7.7
x1 = 0.6991	182.48 ± 7.8	184.81 ± 7.8	187.13 ± 7.9	189.46 ± 8.1	191.71 ± 8.1	194.03 ± 8.2	196.36 ± 8.4
x1 = 0.8042	198.84 ± 8.4	201.2 ± 8.5	203.65 ± 8.7	206.01 ± 8.7	208.45 ± 8.8	210.81 ± 9	213.25 ± 9.1
x1 = 0.8917	211.25 ± 9	213.85 ± 9.1	216.37 ± 9.2	218.97 ± 9.3	221.48 ± 9.4	224 ± 9.5	226.43 ± 9.6
x1 = 0.9224	216.09 ± 9.2	218.66 ± 9.2	221.31 ± 9.4	223.88 ± 9.5	226.45 ± 9.6	229.02 ± 9.7	231.59 ± 9.8
x1 = 0.9627	222 ± 9.4	224.64 ± 9.5	227.27 ± 9.7	229.91 ± 9.8	232.46 ± 9.9	235.01 ± 9.9	237.65 ± 10
x1 = 1	228.1 ± 9.6	230.8 ± 9.8	233.5 ± 9.9	236.21 ± 10	238.91 ± 10	241.52 ± 10	244.23 ± 10

CC(O)CCO (configuration not stated) [1,3-butanediol] + CO
molar heat capacity at constant pressure [J/K/mol]
Conditions	293.15 K	298.15 K	303.15 K	308.15 K	313.15 K	318.15 K	323.15 K
x1 = 0.097	92.98 ± 4	94.08 ± 4	95.24 ± 4	96.45 ± 4.1	97.77 ± 4.1	99.12 ± 4.2	100.56 ± 4.3
x1 = 0.1924	105.32 ± 4.5	106.66 ± 4.5	108.04 ± 4.6	109.47 ± 4.6	110.98 ± 4.7	112.54 ± 4.8	114.18 ± 4.8
x1 = 0.2893	118.06 ± 5	119.57 ± 5.1	121.13 ± 5.1	122.79 ± 5.2	124.45 ± 5.3	126.21 ± 5.4	128.02 ± 5.4
x1 = 0.3902	131.62 ± 5.6	133.42 ± 5.6	135.23 ± 5.7	137.09 ± 5.8	139 ± 5.9	140.97 ± 6	142.94 ± 6.1
x1 = 0.4943	145.68 ± 6.2	147.68 ± 6.3	149.69 ± 6.4	151.69 ± 6.4	153.82 ± 6.5	155.95 ± 6.6	158.19 ± 6.7
x1 = 0.6067	161 ± 6.9	163.22 ± 6.9	165.51 ± 7	167.79 ± 7.1	170.15 ± 7.2	172.5 ± 7.3	174.92 ± 7.4
x1 = 0.7843	185.37 ± 7.8	187.93 ± 8	190.57 ± 8.1	193.28 ± 8.2	195.92 ± 8.3	198.72 ± 8.5	201.51 ± 8.5
x1 = 0.9064	202.23 ± 8.6	205.11 ± 8.7	207.99 ± 8.8	210.95 ± 9	213.91 ± 9.1	216.88 ± 9.2	219.93 ± 9.3
x1 = 0.9165	203.63 ± 8.6	206.44 ± 8.8	209.34 ± 8.9	212.24 ± 9	215.22 ± 9.1	218.21 ± 9.3	221.28 ± 9.4
x1 = 0.9242	204.61 ± 8.7	207.52 ± 8.8	210.44 ± 8.9	213.44 ± 9.1	216.44 ± 9.2	219.44 ± 9.3	222.53 ± 9.4
x1 = 0.9624	210.08 ± 8.9	213.07 ± 9.1	216.06 ± 9.1	219.14 ± 9.3	222.22 ± 9.4	225.38 ± 9.6	228.55 ± 9.7
x1 = 1	215.84 ± 9.2	218.9 ± 9.3	222.06 ± 9.5	225.21 ± 9.6	228.37 ± 9.7	231.61 ± 9.8	234.86 ± 10

OCCCCO [1,4-butanediol] + CO
molar heat capacity at constant pressure [J/K/mol]
Conditions	293.15 K	298.15 K	303.15 K	308.15 K	313.15 K	318.15 K	323.15 K
x1 = 0.1009	92.1 ± 3.9	93.2 ± 3.9	94.34 ± 4	95.55 ± 4.1	96.84 ± 4.1	98.2 ± 4.2	99.61 ± 4.2
x1 = 0.1972	103.34 ± 4.4	104.65 ± 4.4	106 ± 4.5	107.43 ± 4.6	108.87 ± 4.6	110.35 ± 4.7	111.91 ± 4.7
x1 = 0.2955	114.99 ± 4.9	116.42 ± 4.9	117.94 ± 5	119.47 ± 5.1	121.14 ± 5.1	122.81 ± 5.2	124.59 ± 5.3
x1 = 0.4144	129.16 ± 5.5	130.79 ± 5.6	132.48 ± 5.6	134.21 ± 5.7	136.07 ± 5.8	137.97 ± 5.8	139.99 ± 5.9
x1 = 0.5093	140.68 ± 6	142.41 ± 6	144.26 ± 6.1	146.17 ± 6.2	148.2 ± 6.3	150.29 ± 6.3	152.45 ± 6.5
x1 = 0.624	154.46 ± 6.6	156.51 ± 6.6	158.55 ± 6.8	160.74 ± 6.8	162.92 ± 6.9	165.25 ± 7	167.5 ± 7.1
x1 = 0.6996	163.59 ± 7	165.7 ± 7	167.88 ± 7.1	170.13 ± 7.2	172.46 ± 7.3	174.93 ± 7.4	177.4 ± 7.6
x1 = 0.8004	175.9 ± 7.5	178.18 ± 7.5	180.54 ± 7.7	182.97 ± 7.8	185.48 ± 7.9	188.08 ± 8	190.75 ± 8.1
x1 = 0.8591	183.21 ± 7.8	185.59 ± 7.9	188.05 ± 7.9	190.59 ± 8.1	193.21 ± 8.2	195.91 ± 8.3	198.7 ± 8.4
x1 = 0.9043	188.15 ± 7.9	190.69 ± 8.1	193.23 ± 8.2	195.85 ± 8.3	198.55 ± 8.5	201.34 ± 8.5	204.22 ± 8.6
x1 = 0.9565	194.9 ± 8.2	197.44 ± 8.4	200.07 ± 8.5	202.87 ± 8.6	205.67 ± 8.8	208.56 ± 8.8	211.63 ± 9
x1 = 1	201.15 ± 8.6	203.76 ± 8.7	206.56 ± 8.7	209.44 ± 8.9	212.33 ± 9	215.39 ± 9.1	218.54 ± 9.3
